Experimental data: patent US10131881B2, “Method for preparing induced pluripotency stem cells from mesenchymal stem cells by using phlorotannin fraction” (BBHC, priority 2014, dated 2018)
Values joined by “and” are separate entries in the source; they are usually repeats but may differ in a detail not shown here. Identical values can stand only once.

Key:
[1] = system: mesenchymal stem cells derived from human umbilical cord; assay: Induction of pluripotency stem cells from mesenchymal stem cells (colony formation); assay type: cell-based; details: DMEM F-12 basic medium plus 0.1 v/v % energy water
Method: An experiment for measuring induction ability of pluripotency stem cells from mesenchymal stem cells derived from human umbilical cord according to a concentration of the phlorotannin fraction prepared in Example 1-1 was performed. In a control group, DMEM F-12 (Gibco) as a dedicated medium of MSC, 10% FBS, 100 unit/ml penicillin, and 50 μg/ml streptomycin were used as a basic medium (Normal), and in an experimental group, mesenchymal stem cells derived from human which was subjected to three sub-cultures were used and phlorotannin fractions having concentrations of 1 μg/ml, 20 μg/ml, 50 μg/ml, 100 μg/ml, 400 μg/ml, 800 μg/ml, and 1000 μg/ml and 0.1 v/v % energy water (purified deionized water containing SiO2, Al2O3, TiO3, Fe2O3, CaO, Na2O, K2O, and LiO, STC) were added in the medium. The mesenchymal stem cells derived from human umbilical cord were isolated and washed and mononuclear cells were inoculated in a 6-well plate (dish) with 1×10^4 cells and maintained and incubated at 37° C. and 5% CO2.
An experiment for measuring induction ability of pluripotency stem cells from mesenchymal stem cells derived from human according to a concentration of compound 1 among the compounds isolated in Example 1-2 was performed. […]

[2] = system: OCT4, SOX2, SSEA-4, and AP; assay: Immunochemical / AP staining of induced colonies for pluripotency stem cell-specific markers; assay type: cell-based, human; details: confocal microscopy; antibodies for OCT4, SOX2, SSEA-4; AP fluorogenic dye
Method: With respect to the pluripotency stem cells induced by the method of the present invention, whether to express stage-specific embryonic antigen4 (SSEA-4), alkaline phosphatase (AP), OCT4, and SOX2 as specific proteins to embryonic stem cells was analyzed by using antibodies thereof and an immunochemical staining method. During the staining process, cells were first fixed by using 4% paraformaldehyde and washed with PBS, and blocked with a 1% BSA solution. The cells were treated with primary antibodies for OCT4, SOX2, and SSEA-4 and reacted at 4° C. for 18 hours, and then washed with PBS, treated with secondary antibodies with fluorescence (FITC) to the primary antibodies, and reacted at room temperature for 1 hour. The cells were washed with PBS and then the expression was analyzed by using a confocal microscope. […] AP staining was performed with an alkaline phosphatase cell-permeable fluorogenic substrate dye, the AP fluorogenic dye was diluted in a DMEM F-12 culture solution to be treated in colonies, and then reacted for 20 to 30 min, washed with the DMEM F-12 culture solution two times, and the expression was analyzed by using a confocal microscope, and the result was illustrated in FIG. 17. […]

Oc1cc(O)cc(Oc2c(O)cc(O)c3c2Oc2c(O)cc(O)c(-c4c(O)cc(O)c5c4Oc4c(O)cc(Oc6c(O)cc(O)cc6O)c(Oc6cc(O)cc(O)c6)c4O5)c2O3)c1 [compound 1, 2-O-(2,4,6-trihydroxyphenyl)-6,6′-bieckol]
time after which colony formation was observed ([1]; at the colony-forming concentrations): 14 days
concentration at which colonies were formed ([1]; tested 1, 20, 50, 100, 400, 800, 1000 μg/ml, colonies only at stated concentrations): 50 µg/mL and 100 µg/mL
staining of colonies by pluripotency stem cell-specific markers [2]: stained by OCT4, SOX2, SSEA-4, and AP
